Several values for one entry are separate records, joined by “and”; a condition that tells them apart may be missing. Equal entries are not always repeated. Inconclusive results and toxic doses are left out.
Tested on: BDF1 mice, L1210 leukemia sc, survival T/C
Assay: NCI In Vivo Anticancer Drug Screen. Data for tumor model L1210 Leukemia (subcutaneous) in B6D2F1 (BDF1) mice
Settings: higher = longer survival
Procedure, shortened: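 Expressed as T/C: measurement in compound-treated, tumor-bearing mice relative to vehicle-treated control mice, based on survival or tumor size.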

[1] = endpoint: median survival time, dose: 65.0 mg/kg/injection, schedule: Q01DX Z (sc), vehicle: saline

N=C(N)SCc1c2ccccc2c(CSC(=N)N)c2ccccc12
T/C (endpoint: median survival time, dose: 25.0 mg/kg/injection, schedule: Q01DX009 (ip), vehicle: steriod suspending solution): 110 % of control | T/C (endpoint: median survival time, dose: 50.0 mg/kg/injection, schedule: Q01DX009 (ip), vehicle: steriod suspending solution): 110 % of control | T/C (endpoint: median survival time, dose: 50.0 mg/kg/injection, schedule: Q01DX009 (sc), vehicle: steriod suspending solution): 120 % of control | T/C (endpoint: median survival time, dose: 50.0 mg/kg/injection, schedule: Q04DX003 (ip), vehicle: steriod suspending solution): 100 % of control | T/C (endpoint: median survival time, dose: 62.5 mg/kg/injection, schedule: Q01DX001 (ip), vehicle: steriod suspending solution): 100 % of control | T/C (endpoint: median survival time, dose: 100.0 mg/kg/injection, schedule: Q04DX003 (ip), vehicle: steriod suspending solution): 110 % of control | T/C (endpoint: median survival time, dose: 100.0 mg/kg/injection, schedule: Q04DX003 (sc), vehicle: steriod suspending solution): 100 % of control | T/C (endpoint: median survival time, dose: 125.0 mg/kg/injection, schedule: Q01DX001 (ip), vehicle: steriod suspending solution): 110 % of control | T/C (endpoint: median survival time, dose: 125.0 mg/kg/injection, schedule: Q01DX001 (sc), vehicle: steriod suspending solution): 110 % of control | T/C (endpoint: median survival time, dose: 200.0 mg/kg/injection, schedule: Q01DX009 (sc), vehicle: steriod suspending solution): 120 % of control | T/C (endpoint: median survival time, dose: 200.0 mg/kg/injection, schedule: Q04DX003 (sc), vehicle: steriod suspending solution): 105 % of control | T/C (endpoint: median survival time, dose: 250.0 mg/kg/injection, schedule: Q01DX001 (ip), vehicle: steriod suspending solution): 110 % of control | T/C (endpoint: median survival time, dose: 400.0 mg/kg/injection, schedule: Q01DX009 (sc), vehicle: steriod suspending solution): 110 % of control | T/C (endpoint: median survival time, dose: 400.0 mg/kg/injection, schedule: Q04DX003 (sc), vehicle: steriod suspending solution): 110 % of control | T/C (endpoint: median survival time, dose: 500.0 mg/kg/injection, schedule: Q01DX001 (sc), vehicle: steriod suspending solution): 105 % of control | T/C (endpoint: median survival time, dose: 800.0 mg/kg/injection, schedule: Q01DX009 (sc), vehicle: steriod suspending solution): 110 % of control | T/C (endpoint: median survival time, dose: 800.0 mg/kg/injection, schedule: Q04DX003 (sc), vehicle: steriod suspending solution): 100 % of control | T/C (endpoint: median survival time, dose: 1000.0 mg/kg/injection, schedule: Q01DX001 (sc), vehicle: steriod suspending solution): 110 % of control | T/C (endpoint: median survival time, dose: 2000.0 mg/kg/injection, schedule: Q01DX001 (sc), vehicle: steriod suspending solution): 100 % of control

CCCCC(=O)N(c1ccc(Nc2c3ccccc3nc3cc([N+](=O)[O-])ccc23)cc1)S(C)(=O)=O
T/C (endpoint: mean survival time, dose: 3.18 mg/kg/injection, schedule: Q01DX009 (sc), vehicle: saline): 107 % of control | T/C (endpoint: mean survival time, dose: 6.25 mg/kg/injection, schedule: Q01DX009 (sc), vehicle: saline): 112 % of control | T/C (endpoint: mean survival time, dose: 25.0 mg/kg/injection, schedule: Q01DX009 (sc), vehicle: saline): 168 % of control

CN(C)c1nc(N(C)C)nc(N(C)C)n1
T/C (endpoint: median survival time, dose: 39.0 mg/kg/injection, schedule: Q01DX Z (sc), vehicle: saline): 100 % of control | T/C [1]: 100 % of control | T/C (endpoint: median survival time, dose: 108.0 mg/kg/injection, schedule: Q01DX Z (sc), vehicle: saline): 100 % of control | T/C (endpoint: median survival time, dose: 180.0 mg/kg/injection, schedule: Q01DX Z (sc), vehicle: saline): 100 % of control | T/C (endpoint: median survival time, dose: 300.0 mg/kg/injection, schedule: Q01DX Z (sc), vehicle: saline): 95 % of control and 105 % of control | T/C (endpoint: median survival time, dose: 500.0 mg/kg/injection, schedule: Q01DX Z (sc), vehicle: saline): 95 % of control | T/C (endpoint: median survival time, dose: 833.0 mg/kg/injection, schedule: Q01DX Z (sc), vehicle: saline): 110 % of control | T/C (endpoint: median survival time, dose: 1388.0 mg/kg/injection, schedule: Q01DX Z (sc), vehicle: saline): 100 % of control

N=[N+]=CC(=O)OCC(N)C(=O)O (configuration not stated)
T/C (endpoint: median survival time, dose: 3.0 mg/kg/injection, schedule: Q01DX Z (sc), vehicle: saline): 105 % of control | T/C (endpoint: median survival time, dose: 4.0 mg/kg/injection, schedule: Q01DX Z (sc), vehicle: water): 110 % of control | T/C (endpoint: median survival time, dose: 5.0 mg/kg/injection, schedule: Q01DX Z (sc), vehicle: saline): 110 % of control | T/C (endpoint: median survival time, dose: 6.72 mg/kg/injection, schedule: Q01DX Z (sc), vehicle: water): 110 % of control | T/C (endpoint: median survival time, dose: 8.0 mg/kg/injection, schedule: Q01DX Z (sc), vehicle: water): 172 % of control | T/C (endpoint: median survival time, dose: 8.0 mg/kg/injection, schedule: Q02DX Z (sc), vehicle: water): 100 % of control | T/C (endpoint: median survival time, dose: 8.4 mg/kg/injection, schedule: Q01DX Z (sc), vehicle: saline): 110 % of control | T/C (endpoint: median survival time, dose: 11.2 mg/kg/injection, schedule: Q01DX Z (sc), vehicle: water): 110 % of control | T/C (endpoint: median survival time, dose: 14.0 mg/kg/injection, schedule: Q01DX Z (sc), vehicle: saline): 120 % of control | T/C (endpoint: median survival time, dose: 16.0 mg/kg/injection, schedule: Q01DX Z (sc), vehicle: water): 168 % of control | T/C (endpoint: median survival time, dose: 16.0 mg/kg/injection, schedule: Q02DX Z (sc), vehicle: water): 100 % of control | T/C (endpoint: median survival time, dose: 31.1 mg/kg/injection, schedule: Q01DX Z (sc), vehicle: water): 120 % of control | T/C (endpoint: median survival time, dose: 32.0 mg/kg/injection, schedule: Q02DX Z (sc), vehicle: water): 100 % of control | T/C (endpoint: median survival time, dose: 64.0 mg/kg/injection, schedule: Q01DX Z (sc), vehicle: water): 118 % of control | T/C [1]: 100 % of control | T/C (endpoint: median survival time, dose: 86.1 mg/kg/injection, schedule: Q01DX Z (sc), vehicle: water): 110 % of control | T/C (endpoint: median survival time, dose: 128.0 mg/kg/injection, schedule: Q02DX Z (sc), vehicle: water): 100 % of control

Source: PubChem BioAssay AID250 (DTP/NCI, 2004)
